Measured values as given in US9844522B2 (LIFE & BRAIN GMBH, priority 2012, dated 2017).
Entries after “also recorded” stand apart in the source; their conditions may differ. Like-named read-outs stand apart in the source and are kept apart here.

Key:
[1] = system: pGBMs; experiment: Combinatorial pharmacodynamics niclosamide and TMZ (alamarBlue); format: cell-based; settings: Homo sapiens; 50 μM TMZ alone, pGBMs n=7, triplicate; read-out: Metabolic activity, % of control levels
Method: (§1) For pharmacodynamic analysis, 5×10^4 cells were plated in 12-well-plates at 24 hours before application of compound-series and compound combinations, respectively. alamarBlue®-based analysis was conducted at 3-5 days post treatment. Experiments were performed in triplicates. IMC50 was defined as the compound concentration that reduced the metabolic activity by 50% compared to control conditions and determined via data analysis in GraphPad Prism 4.0.

[2] = system: standard GBM cell lines; experiment: as above; format: cell-based; settings: Homo sapiens; 50 μM TMZ alone, GBMs (standard cell lines); read-out: Metabolic activity, % of control levels
Method: as §1

[3] = system: pGBM #046 grafts in Rag2Il2rg−/− mice; experiment: Orthotopic tumor xenograft of pre-treated cells; format: in vivo; settings: niclosamide pre-treated #046 pGBMs, n=5
[4] = system: pGBMs; experiment: Annexin V/Hoechst FACS analysis; format: cell-based, human; settings: 5 days after application
[5] = system: pGBM #GNV019 grafts in Scid Beige mice; experiment: Orthotopic tumor xenograft of pre-treated cells; format: in vivo; settings: niclosamide pre-treated #GNV019 cells, single exposure, n=6
[6] = system: NF-κB-signaling (phospho-p65-NFκB protein); experiment: Western blot of phospho-p65-NFκB (phospho-RELA); format: cell-based, human
[7] = system: pGBMs; experiment: Proliferation kinetics / long-term cell growth (CellaVista); format: cell-based, human
[8] = system: self-renewing, multipotent cells among pGBMs; experiment: Neurosphere assay; format: cell-based, human; settings: single application 1.5 μM, vital cells collected at day 5
[9] = system: glioma/GBM cell lines LN229, T98G, U87, U138, U373; experiment: Pharmacodynamic analysis (alamarBlue dose-response, IC50); format: cell-based, human; settings: defined media (dm) conditions
Method: as §1

[10] = system: NFKBIA; experiment: qRT-PCR of NFKBIA expression; format: cell-based, human; settings: NFKBIA+/− pGBMs and standard GBM models under dm conditions
Source text: On the other hand, it is known that the inhibition of NF-κB alone may not severely affect most solid tumors, rather that it may help to prevent resistance of cancer cells to chemotherapy (30, 31).

[11] = system: Cyclin D1; experiment: Western blot of Cyclin D1; format: cell-based, human; settings: 24 hours post application
Method: (§2) Cell extracts were prepared at 24 to 144 hours following compound application and processed as described (49). Blot membranes were incubated overnight at 4° C. with antibodies against Cyclin-D1 (1:1000; BD Pharmingen), cleaved-Notch1 (1:1000), or phospho-S6 protein (1:1000; all Cell signaling) respectively. After washing, peroxidase-coupled secondary antibodies (Santa Cruz) were added for 1 hour. After washing, blots were developed using the ECL system (Millipore).

[12] = system: Notch pathway (cleaved Notch 1-protein); experiment: Western blot of cleaved Notch 1; format: cell-based, human; settings: day 5 after single-dose exposure, 4 pGBMs
Method: as §2
(§3) It is known that a circumscribed number of transcription factors and associated signaling pathways are overactive in human cancer cells (21). […] Characteristic for the active state of this mechanism, known to play an important role for tumor invasion, is an enhanced nuclear accumulation of β-catenin, phosphorylated at Ser^552 (26).

[13] = system: pGBMs; experiment: Cell migration analysis (scratch assay); format: cell-based, human; settings: sub-toxic concentrations, 125 nM
Method: 5×10^4 cells were plated into 12-well-plates coated with laminin/poly-L-ornithine. […] Three days after plating (at a cell density of 70%), a scratch/wound was inflicted with a sterile pipette tip. Thereafter, culture media was exchanged to remove non-adherent cells. The Plaque Assay application of the CellaVista® system (Roche Diagnostics) was used according to the manufacturer's instructions to monitor the scratch/wound size over time. Triplicate analysis data±SEM.

[14] = system: U87 glioma cell line; experiment: Primary drug screening, alamarBlue metabolic activity; format: cell-based, human; settings: 1 µM niclosamide for 5 days, triplicate
Method: (§4) The tested compounds were supplied to cells proliferating in a linear-exponential phase. For all used cell samples, respective titration experiments were conducted before analysis. 24 hours after seeding 2-3×10^3 cells/well into laminin/poly-L-ornithine coated 96-well plates, cells were treated with 1 μM of each compound (stock solution 10 mM in DMSO). Control cells were treated with 0.01-0.1% DMSO. Five days after application, metabolic activity as a measure of cell viability was determined using the alamarBlue® assay according to the manufacturers recommendations (Life Technologies). Fluorescence was measured using an Infinite200 microplate reader (Tecan) at λex=540 nm and λem=590 nm. Experiments were performed in triplicates for each sample.
(§5) A library comprising of 160 synthetic and natural toxic substances was used for the screening approach. Four pGBMs, previously shown to maintain patient- and GBM-specific signatures and to contain sub-populations of tumor cells with and without stem cell qualities served as a discovery platform (#'s 023, 035, 046, 106; see (10)). Primary screening was conducted based on the alamarBlue® assay determining the metabolic activity as a measure for cellular viability at day 5 following single application of the library's compounds. In the experiments, every compound that reduced the mean metabolic activity of the 4 pGBMs below 50% of control levels was considered as a ‘hit’.

[15] = system: pGBMs (primary glioblastoma cells); experiment: as above; format: cell-based, human; settings: for Metabolic activity in % of the activity of a control without niclosamide: triplicate
Method: as §4, §5

[16] = system: non-malignant human cell sample #155; experiment: Annexin V/Hoechst FACS analysis; format: cell-based; settings: 5 days after application
Method: (B) CYCLIN D1 (CCND1)-western blot of cell extracts derived at this time point. […] Inset: mean data (n=5 pGBMs; **p<0.01). […] Right inset: representative scatter plots (#046). […] The graph exemplifies the time course of scratch closure for case #046 (mean±SD; triplicate analysis).
1×10^5 cells were collected at 5 days following compound application, settled by centrifugation, re-suspended in 100 μl AnnexinV buffer and incubated with 5 μl Annexin V-FITC for 1 hour at room temperature. To distinguish between living and dead cells, labeling with 1.2 μg/ml Hoechst 33258 was used Annexin V presence was determined using standard conditions in a LSRII equipped with FACSDiva Software (BD Bioscience). 2×10^4 cells were counted per measurement. The term ‘avital cells’ was used for Annexin V^+−, Annexin V^+/H33258^+, and H33258^+ cells.

[17] = system: non-malignant hnNCs (human non-malignant neural cells); experiment: Pharmacodynamic analysis (alamarBlue dose-response); format: cell-based; settings: three hnNCs, defined culture conditions
Method: as §1

[18] = system: 21 pGBMs; experiment: Pharmacodynamic analysis (alamarBlue dose-response, IC50); format: cell-based; settings: Homo sapiens, 120 h
Method: as §1

[19] = system: WNT/CTNNB1 target genes; experiment: qRT-PCR of β-catenin target genes; format: cell-based, human; settings: pGBMs
Source text: as §3

[20] = system: #155 non-malignant primary adult human neural progenitor cells (AHNPs); experiment: Primary drug screening, alamarBlue metabolic activity; format: cell-based; settings: control cells 155; 1 µM niclosamide for 5 days, triplicate
Method: as §4
as §5, with “In the experiments, every compound that reduced the mean metabolic activity of the 4 pGBMs below 50% of control levels was considered as a ‘hit’.” left out

[21] = system: phospho-β-catenin (Ser552); experiment: Immunofluorescence of nuclear phospho-β-catenin (Ser552); format: cell-based, human; settings: pGBMs
Source text: as §3

[22] = system: mTOR signaling (phosphorylated S6-protein); experiment: Western blot of phospho-S6 protein; format: cell-based, human; settings: day 5 after single-dose exposure, 4 pGBMs
Method: as §2, §3

[23] = system: hnNCs co-cultured with pGBMs; experiment: Co-culture of pGBMs and hnNCs; format: cell-based, human; settings: dm conditions, niclosamide 1 μM
[24] = studies in animals; cited from earlier work
[25] = system: NFKBIA+/− pGBMs; experiment: Control study with NFκB activator in combinatorial treatment; format: cell-based, human; settings: NFKBIA+/− genotypes; niclo 1 μM, temozolomide 50 μM, TNF-a 50 ng/ml, 3 days
Method: FIG. 16: TNF-a antagonizes synergistic activity in NFKBIA+/− pGBMs. Graphs present data from combinatorial treatment paradigms in NFKBIA+/− (black) versus NFKBIA+/+ (gray) pGBMs at 3 days after compound application (niclo, 1 μM; temozolomide, 50 μM; TNF-a, 50 ng/ml). Insets, Western blot analyses of pREL A, indicating NF-kB pathway activity 24 hours after exposure to TNF-a, (Ta; 50 ng/ml) or 0.002% bovine serum albumin (C; control). ***p<0.001; **p<0.01; *p<0.05 (triplicates; mean±SD; one-way ANOVA and Tukey post hoc tests).

Cn1nnc2c(C(N)=O)ncn2c1=O [TMZ, temozolomide]
activity at 50 µM [1]: 94 ± 4%
activity at 50 µM [2]: 89 ± 8%

O=C(Nc1ccc([N+](=O)[O-])cc1Cl)c1cc(Cl)ccc1O [niclosamide]
Time after engraftment at which tumors developed / animals distressed ([3]; 10^6 cells into striatum): 153 ± 23 days
Animals with tumor development [3]: 4/5
Vital cells (pro-apoptotic effect) [4]: strong and pGBM-selective decrease of vital cells
Tumor forming capacity of grafted cells [5]: no animal that received niclosamide pre-treated grafts showed evidence for tumor formation; also recorded: completely extinguished the tumor forming capacity
NF-κB pathway (phospho-p65-NFκB protein levels) ([6]; pGBMs #046 and #078 (NFKBIA+/−) only, of four cases): pathway inhibition
Delay of recovery of vital cells from cytostatic effects (long-term growth) ([7]; single application 1.5 μM): 14 to 23 days
Growth delay ([7]; single exposure, 1.5 μM, pGBMs 046, 078, 106): 5 days
Frequencies of self-renewing, multipotent (sphere-forming) cells [8]: reduced the frequencies of self-renewing, multipotent cells among pGBMs strongly
Niclosamide effects on standard GBM model cell lines under dm conditions [9]: highly similar to findings obtained from pGBMs
NFKBIA expression [10]: strongly up-regulate
Cyclin D1 expression [11]: strong decrease
Notch pathway activity (cleaved Notch 1-protein levels) [12]: concentration-dependent inhibition
Effect on migration (scratch closure) [13]: anti-migratory effects
Metabolic activity in % of the activity of a control without niclosamide [14]: 66.5%
activity at 1 µM ([15]; Homo sapiens, 120 h, day 5 after single application, 1 μM of each compound, read-out: Mean metabolic activity of the 4 pGBMs, % of control levels ('hit' criterion)): < 50%
Metabolic activity in % of the activity of a control without niclosamide, pGBMs average ([15]; average of pGBMs 023, 035, 046, 106, 1 µM niclosamide for 5 days): 26.4%
Metabolic activity in % of the activity of a control without niclosamide ([15]; pGBM 023, 1 µM niclosamide for 5 days): 32.3%
Metabolic activity in % of the activity of a control without niclosamide ([15]; pGBM 035, 1 µM niclosamide for 5 days): 5.6%
Metabolic activity in % of the activity of a control without niclosamide ([15]; pGBM 046, 1 µM niclosamide for 5 days): 34.6%
Metabolic activity in % of the activity of a control without niclosamide ([15]; pGBM 106, 1 µM niclosamide for 5 days): 33.0%
Pro-apoptotic effects in non-malignant cells [16]: lack of pro-apoptotic effects
Sensitivity of non-malignant hnNCs compared with pGBMs [17]: significantly lower level of sensitivity
IC50 ([18]; day 5, read-out: IC50 (50% reduction of relative metabolic activity), lower end of range over 21 pGBMs): ≥ 300 nM
IC50 ([18]; day 5, read-out: IC50 (50% reduction of relative metabolic activity), upper end of range over 21 pGBMs): ≤ 1200 nM
Expression of β-catenin target genes [19]: significantly decreased
Metabolic activity in % of the activity of a control without niclosamide [20]: 75.4%
Nuclear phospho-β-catenin (Ser552) antigen [21]: strong decrease
Levels of phosphorylated S6-protein [22]: decrease in all samples
Sensitivity of hnNCs in co-culture with pGBMs [23]: lower sensitivity of hnNCs can be confirmed
Mutagenic, oncogenic, embryotoxic activity and cumulative effects [24]: no mutagenic, oncogenic, or embryotoxic activity and no cumulative effects

TNFα
NFκB activity in pGBMs ([6]; TNF-a 50 ng/ml, 24 hours): activated NFκB
Effect on niclosamide/TMZ synergy [25]: counteracted synergy effects
